The values below come from publication PMC11676762, “Control of Postharvest Green Mold in Citrus by the Antimicrobial Peptide BP15 and Its Lipopeptides” (Journal of Fungi, 2024).

For data set [1], the system named is P. digitatum mycelia. The data set is described as follows: Mycelial survival assay (MTT). The class given is cell-based, Penicillium digitatum. The note with it: 100 μM peptide, 3 h at 25 °C, then MTT 16 h; mean of triplicate. As for the experimental part:
The mycelial survival rate was determined according to by Weerden et al.. A spore suspension (5 × 10^4 CFU/mL) was prepared with 5% PDB and incubated for 24 h at 25 °C. […] The mixtures were cultured at 25 °C for 3 h before the addition of 10 μL of 3-(4,5-dimethylthiazol-2-yl)-2,5-diphenyltetrazolium bromide (MTT; 5 mg/mL; MACKLIN). The plates were then incubated in a dark environment for 16 h, followed by the addition of DMSO (100 μL).

For data set [2], the system named is P. digitatum. The note with it: for MFC: 50 μL from mycelium-free well plated on PDA, no pathogen growth; for MFC / MIC: 25 °C; for MIC: lowest peptide concentration completely inhibiting growth for 48 h, spores 1 × 10^4 CFU/mL, 5% PDB, triplicate. The procedure:
The experiment was adapted from the method of Jia et al.. A 180 μL spore suspension (1 × 10^4 CFU/mL), containing 5% potato dextrose broth (PDB) by volume, was mixed with 20 μL of peptide solution in a sterile 96-well microplate and thoroughly mixed. The final peptide concentrations were 0.78, 1.56, 3.12, 6.25, 12.5, 25, 50, and 100 μM, with sterile water as the control. The mixtures were cultured in an incubator at 25 °C for 48 h, and the light absorption at OD600nm was measured using an 800TS full-wavelength microplate reader (Bio Tek Instruments, Inc., Winooski, VT, USA). The minimum inhibitory concentration (MIC) was defined as the lowest peptide concentration completely inhibiting fungus growth for 48 h. Then, a 50 μL sample from the mycelium-free well was plated on PDA and left to culture at 25 °C for 48 h. The minimum fungicidal concentration (MFC) was the peptide concentration at which there was no pathogen growth after 48 h.

Data set [3] concerns P. digitatum mycelia. Nature of the data set: Sytox Green fluorescence microscopy (membrane permeability). The following applies: 2 h, Sytox Green 0.2 μM. The class given is cell-based, Penicillium digitatum. As for the experimental part: The experiment protocol was adapted from Li et al.. A spore suspension (10^5 CFU/mL) of 90 μL was prepared with 5% PDB and incubated for 24 h at 25 °C. Subsequently, the peptide solution was added to final concentrations of the MIC, the MFC, and 100 μM, and the mixtures were left for 2 h, with sterile water as the control. After incubation, Sytox Green (Molecular Probes; KeyGen Biotech Co., Nanjing, China) was added at 4 μM and thte final concentration was 0.2 μM and was incubated for 5 min in the dark. The treated samples were washed with sterile water, resuspended in 20% glycerol solution, and prepared and observed under a DM3000 fluorescence microscope (Leica, Weztlar, Germany).

The next data set has as its system P. digitatum genomic DNA. Nature of the data set: DNA binding gel retardation assay. The note with it: peptide:DNA 1:1 (v/v), room temperature 30 min, 1% agarose gel. Details: species or system Penicillium digitatum. The procedure:
In accordance with Miao et al. with slight adjustments, the gel retardation effect was analyzed. The P. digitatum DNA was extracted according to the operation steps of the TIANGEN plant genome DNA extraction kit. The agarose gel electrophoresis utilized a 1% agarose concentration. […] Electrophoresis was run at 110 V for 25 min, followed by the removal of the rubber plate and placement in the Tanon-2500B (Tanon Science and Technology Co., Ltd., Shanghai, China) for visualization.

Another data set relates to sheep red blood cells. The note with it: test range, significantly lower than commercial prochloraz (p < 0.05), results not yet published.
The subject of data set [4] is P. digitatum. Nature of the data set: Fruit decay test, green mold on mandarins. The class given is in vivo, Penicillium digitatum. The note with it: mean ± SD. From the text: This experiment followed the method of Zhou et al. with some adjustments. The effects of three peptides on the control of green mold in citrus in vivo were studied by measuring the incidence rate and spot diameters on the citrus fruit. Mandarins were purchased from a local supermarket and selected for uniform size, ripeness, and a lack of mechanical damage. The mandarins were soaked in 75% alcohol for 30 s and then in 1% NaClO for 30 s, followed by rinsing with sterile water and drying with sterile paper to remove excess surface water. A sterile needle was used to drill holes near the equator (about 3 mm deep), and each mandarin was inoculated with 10 µL of 100 μM concentrations of three peptide solutions and 1 × 10^5 CFU/mL P. digitatum suspension (v/v 1:1), compared with a mixture of equal parts sterile water and P. digitatum suspension. The mandarins were placed in a […] container with sterile wet paper towels in order to preserve their freshness. A humid environment was maintained in the container, and the fruit was stored at room temperature. The incidence rate and spot diameter of the mandarins were measured in accordance with the method of Zhang et al.. Each treatment group contained eight fruits, and each treatment was repeated three times.

Data set [5] has as its system P. digitatum. The note with it: against P. digitatum; cited from earlier work. The source says: Conidia generated by P. digitatum are disseminated to the surface of fruits via wind, rain, soil dust, and other media. Upon landing on the surface or wound of the fruit, these conidia promptly germinate, leading to fruit decay. […] In the present s ...
The mark [6] stands for this setting: 5 d, 100 μM peptide + spores (1:1), three replicates.
The mark [7] stands for this setting: 6 d, 100 μM peptide + spores (1:1), three replicates.
Where [8] appears, read: 7 d, 100 μM peptide + spores (1:1), three replicates.
The mark [9] stands for this setting: 8 d, 100 μM peptide + spores (1:1), three replicates.
Where [10] appears, read: 9 d, 100 μM peptide + spores (1:1), three replicates.
[11] abbreviates: 10 d, 100 μM peptide + spores (1:1), three replicates.

Values after ≈ are worked out from the molar mass of the structure shown. Values joined by “and” are separate entries in the source; they are usually repeats but may differ in a detail not shown here. Equal entries are not always repeated. Where two headings read alike, the source gives them in different places. Marks after values point to notes of the source that are not given here.

With `CCCCCC(=O)N[C@@H](CCCCN)C(=O)N[C@@H](CCCCN)C(=O)N[C@@H](CC(C)C)C(=O)N[C@@H](Cc1ccccc1)C(=O)N[C@@H](CCCCN)C(=O)N[C@@H](CCCCN)C(=O)N[C@H](C(=O)N[C@@H](CC(C)C)C(=O)N[C@@H](CCCCN)C(=O)N[C@H](C(=O)N[C@@H](CC(C)C)C(N)=O)C(C)C)[C@@H](C)CC` [HBP15], the mycelial survival rate in the data set on P. digitatum mycelia [1] is recorded as 16.31%. Moreover, the MFC in the data set on P. digitatum [2] (48 h) was 6.25 µM (≈ 9.09 µg/mL). In addition, the MIC against P. digitatum [2] (OD600nm) is 3.12 µM (≈ 4.54 µg/mL). In addition, the “SG fluorescence in mycelia” value in the data set with P. digitatum mycelia [3] (peptide at 100 μM) was “extensive continuous green fluorescence”; with P. digitatum mycelia [3] (peptide at 2 MIC) it was “enhanced fluorescence intensity and continuity”; in the data set with P. digitatum mycelia [3] (peptide at MIC), “no fluorescence”. In addition, the “peptide concentration at which DNA bands were no longer visible” value in the data set with P. digitatum genomic DNA is given as 25 µM. Besides, the hemolytic activity entry in the data set with sheep red blood cells is reported as “low hemolysis”. For the same compound, the “Spot Diameter” value in the data set on P. digitatum [4] (setting [6]) is recorded as 1.41 ± 0.80 ^c mm; with P. digitatum [4] (setting [7]) it was 4.45 ± 0.80 ^c mm; in the data set on P. digitatum [4] (setting [8]), 9.76 ± 0.84 ^c mm; with P. digitatum [4] (setting [9]), 14.81 ± 1.19 ^c mm; in the data set on P. digitatum [4] (setting [10]) it was 19.72 ± 1.95 ^c mm; with P. digitatum [4] (setting [11]), 23.27 ± 3.61 ^c mm. Further, the “Incidence Rate” value is listed as 12.50 ± 0.00 ^c % with P. digitatum [4] (5 d, 10 µL of 100 μM peptide + 1 × 10^5 CFU/mL spores (1:1), room temperature, three replicates of eight fruits); 20.83 ± 7.22 ^c % in the data set on P. digitatum [4] (setting [7]); 37.50 ± 0.00 ^c % in the data set on P. digitatum [4] (setting [8]); 37.50 ± 0.00 ^c % in the data set on P. digitatum [4] (setting [9]); 37.50 ± 0.00 ^c % in the data set with P. digitatum [4] (setting [10]); 41.67 ± 7.22 ^b % in the data set on P. digitatum [4] (setting [11]).

`CC[C@H](C)[C@H](NC(=O)[C@H](CCCCN)NC(=O)[C@H](CCCCN)NC(=O)[C@H](Cc1ccccc1)NC(=O)[C@H](CC(C)C)NC(=O)[C@H](CCCCN)NC(=O)[C@@H](N)CCCCN)C(=O)N[C@@H](CC(C)C)C(=O)N[C@@H](CCCCN)C(=O)N[C@H](C(=O)N[C@@H](CC(C)C)C(N)=O)C(C)C` [BP15] had an MFC in the data set on P. digitatum [2] (48 h) of 6.25 µM (≈ 8.48 µg/mL). Moreover, in the data set with P. digitatum [2] (OD600nm), the MIC came to 3.12 µM (≈ 4.23 µg/mL). For the same compound, in the data set with sheep red blood cells, the hemolytic activity result is on record as “low hemolysis”.

For the compound `CCCCCCCCCCCC(=O)N[C@@H](CCCCN)C(=O)N[C@@H](CCCCN)C(=O)N[C@@H](CC(C)C)C(=O)N[C@@H](Cc1ccccc1)C(=O)N[C@@H](CCCCN)C(=O)N[C@@H](CCCCN)C(=O)N[C@H](C(=O)N[C@@H](CC(C)C)C(=O)N[C@@H](CCCCN)C(=O)N[C@H](C(=O)N[C@@H](CC(C)C)C(N)=O)C(C)C)[C@@H](C)CC` [LBP15], in the data set with P. digitatum mycelia [1], the mycelial survival rate is 10.40%. Also, the MFC against P. digitatum [2] (48 h) is 6.25 µM (≈ 9.62 µg/mL). In the data set on P. digitatum [2] (at 0.78 and 1.56 μM, 48 h, OD600nm), the “inhibitory effect on P. digitatum growth” value was “No obvious inhibitory effect”. Moreover, in the data set on P. digitatum [2] (OD600nm), the MIC came out at 3.12 µM (≈ 4.8 µg/mL). Moreover, the “SG fluorescence in mycelia” value was “extensive continuous green fluorescence” with P. digitatum mycelia [3] (peptide at 100 μM); “enhanced fluorescence intensity and continuity” with P. digitatum mycelia [3] (peptide at 2 MIC); “weak green fluorescence” in the data set on P. digitatum mycelia [3] (peptide at MIC). In the data set with P. digitatum genomic DNA, the “peptide concentration at which DNA bands were no longer visible” value is 50 µM. For the same compound, the hemolytic activity entry in the data set with sheep red blood cells is given as “low hemolysis”. Besides, the “Spot Diameter” value with P. digitatum [4] (setting [6]) is 10.80 ± 4.93 ^b mm; with P. digitatum [4] (setting [7]) it was 21.23 ± 4.46 ^b mm; in the data set with P. digitatum [4] (setting [8]), 34.00 ± 10.39 ^b mm; in the data set with P. digitatum [4] (setting [9]) it was 45.60 ± 13.19 ^b mm; in the data set with P. digitatum [4] (setting [10]), 54.08 ± 12.44 ^b mm; in the data set with P. digitatum [4] (setting [11]), 69.6 ± 8.37 ^b mm. Besides, the “Incidence Rate” value with P. digitatum [4] (setting [7]) was 70.83 ± 19.09 ^b %; in the data set on P. digitatum [4] (setting [8]) it was 80.83 ± 11.54 ^b %; in the data set on P. digitatum [4] (setting [9]) it was 80.83 ± 11.54 ^b %; in the data set with P. digitatum [4] (setting [10]), 80.83 ± 11.54 ^b %; in the data set with P. digitatum [4] (setting [11]), 87.50% and 87.50 ± 0.00 ^a %.

On to “GHRKKWFW [PAF56, synthetic short cationic antimicrobial peptide (GHRKKWFW), literature comparator]”, for which the minimal inhibitory concentration (MIC) in the data set on P. digitatum [5] is 8 µM.

In general, MIC refers to the smallest concentration in the dilution series that meets the test's criterion for growth inhibition.
